US9684238B2, “Fluorene-type compound, photopolymerization initiator comprising said fluorene-type compound, and photosensitive composition containing said photopolymerization initiator” (TOKYO OHKA KOGYO CO., LTD., priority 2012, dated 2017)

Legend:
[1] = Average transmittance of composition; type: physicochemical; conditions: photosensitive composition, quartz cell, optical path length 1 cm
Procedure: The average transmittance (%) of each of the photosensitive resin compositions obtained in Examples 1 to 9, Examples 2-1 to 2-10, and Comparative Examples 1 and 2 in the range of from 400 nm to 700 nm was measured with a spectrophotometer (manufactured by Hitachi High-Technologies Corporation, trade name: “U-3900H”, quartz cell, optical path length; 1 cm).

[2] = Evaluation 1: 20-μm pattern line width of transparent photosensitive composition; conditions: for 20-μm pattern line width: transparent composition, initiator 0.4 mmol
[3] = Transmittance of transparent cured film; type: physicochemical; conditions: for Average transmittance (700 nm to 400 nm) Transparent cured film / Transmittance (400 nm) Transparent cured film: cured at exposure energy quantity 80 mJ/cm^2
In short: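 Films cured at 80 mJ/cm^2 exposure, otherwise prepared as in the earlier film evaluation. Spectrophotometer read in quartz cell, 1 cm path, giving transmittance (%) at 400 nm and average transmittance (%) over 400–700 nm.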

[4] = Solubility in PGME, PGMEA and ethyl lactate; type: physicochemical; conditions: for Solubility Ethyl lactate: in 100 parts by weight of ethyl lactate; for Solubility Ethyl lactate / Solubility PGMEA / Solubility PGME: room temperature; for Solubility PGMEA: in 100 parts by weight of propylene glycol monomethyl ether acetate; for Solubility PGME: in 100 parts by weight of propylene glycol monomethyl ether; for solubility (in words): photopolymerization initiator containing the compound
[5] = Absorption coefficient (absorbance of 0.001% solution in tetrahydrofuran); type: physicochemical; conditions: for Λ max (absorption maximum wavelength): 0.001% (wt/vol) in tetrahydrofuran, from 280 nm to 400 nm; for Absorption coefficient at 365 nm / Absorption coefficient at Λ max: 0.001% (wt/vol) solution in tetrahydrofuran
In short: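 Absorbance of a 0.001% (wt/vol) solution in tetrahydrofuran recorded by spectrophotometer. Absorption maximum wavelength (λmax) taken from the spectrum within 280–400 nm.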

[6] = Evaluation 1: 20-μm pattern line width of transparent photosensitive composition; conditions: initiator 0.4 mmol, exposure energy quantity 30 mJ/cm^2
[7] = Decomposition point by thermal analysis (TG-DTA); type: physicochemical; conditions: 5.0 mg
Procedure: The compounds 1, 2, 4, 6, 8, 9, 11, 12, 13, 15, 16, D-1, D-3, D-4, D-7, D-8, D-9, D-12, D-14, D-15, D-20, C-1, and C-2 were each subjected to measurement with a thermal analysis apparatus (TG-DTA) (manufactured by Rigaku Corporation, trade name: “Thermo Plus EVO TG 8120”) by using 5.0 mg thereof.

[8] = Evaluation 3: 20-μm pattern line width of black photosensitive composition; conditions: black composition (carbon black, cardo resin), initiator 0.4 mmol
In short: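 Composition spin-coated on glass to 1.0 μm dry thickness, dried 90 °C for 10 min, exposed at 10–80 mJ/cm^2 via high-pressure mercury lamp through 20 μm negative mask, developed in 0.1 wt % TMAH, rinsed. Line width of remaining cured film measured; larger width means higher sensitivity.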

[9] = exposure energy quantity 5 mJ/cm^2
[10] = exposure energy quantity 10 mJ/cm^2
[11] = exposure energy quantity 20 mJ/cm^2
[12] = exposure energy quantity 40 mJ/cm^2
[13] = photopolymerization initiator containing the compound

Structure (SMILES)	Average transmittance (700 nm to 400 nm) Solution [1] [%]	20-μm pattern line width [2, 9]	20-μm pattern line width [2, 10]	20-μm pattern line width [2, 11]	20-μm pattern line width [2, 12]	Average transmittance (700 nm to 400 nm) Transparent cured film [3] [%]	Transmittance (400 nm) Transparent cured film [3] [%]	Solubility Ethyl lactate [4]	Solubility PGMEA [4]	Solubility PGME [4]	Λ max (absorption maximum wavelength) [5] [nm]	Absorption coefficient at 365 nm [5] [mL/mg/cm]	Absorption coefficient at Λ max [5] [mL/mg/cm]	20-μm pattern line width [6]	Decomposition point [7] [°C]	20-μm pattern line width ([8]; 10 mJ/cm^2)	20-μm pattern line width ([8]; 20 mJ/cm^2)	20-μm pattern line width ([8]; 40 mJ/cm^2)	20-μm pattern line width ([8]; 60 mJ/cm^2)	20-μm pattern line width ([8]; 80 mJ/cm^2)	also measured
CCCC1(CCC)c2cc(C(=O)c3ccc([N+](=O)[O-])cc3)ccc2-c2ccc(C(C)=NOC(C)=O)cc21 [Compound D-7]	86.0	19.3	20.2	20.8	22.6	99.3	96.1	D (Less than 2 parts by weight of the photopolymerization initiator is dissolved.)	D (Less than 2 parts by weight of the photopolymerization initiator is dissolved.)	D (Less than 2 parts by weight of the photopolymerization initiator is dissolved.)	341.5	21.9	62.9	21.4	250.3	–	–	–	–	–	–
CCCC1(CCC)c2cc(C(CCCCl)=NOC(C)=O)ccc2-c2ccc([N+](=O)[O-])cc21 [Compound D-12]	79.9	19.8	20.6	21.4	22.3	99.7	93.6	B (An amount in the range of from 5 parts by weight or more to less than 10 parts by weight of the photopolymerization initiator is dissolved.)	A (10 Parts by weight or more of the photopolymerization initiator is dissolved.)	A (10 Parts by weight or more of the photopolymerization initiator is dissolved.)	345.5	39.0	58.4	–	174.7	19.1	20.5	21.6	22.5	22.7	sensitivity to the active energy ray (in words) [2, 13]: additionally high sensitivity to the active energy ray; 20-μm pattern line width ([2]; exposure energy quantity 80 mJ/cm^2): 23.3; solubility (in words) [4]: additionally excellent solubility
CCCC1(CCC)c2cc(C(=O)c3ccc([N+](=O)[O-])cc3)ccc2-c2ccc(C(=NOC(C)=O)C(C)C)cc21 (mixture of isomers) [Compound D-8]	87.0	19.1	19.7	20.0	21.9	100.0	98.0	A (10 Parts by weight or more of the photopolymerization initiator is dissolved.)	A (10 Parts by weight or more of the photopolymerization initiator is dissolved.)	A (10 Parts by weight or more of the photopolymerization initiator is dissolved.)	335.5	10.9	52.1	21.3	182.6	18.7	18.7	20.0	20.7	21.1	transparency of photosensitive composition and formed product (in words) [3, 13]: additionally excellent transparency; solubility (in words) [4]: additionally excellent solubility
